This is an account of results in ChEMBL document CHEMBL1201862, “PubChem BioAssay data set” (2004).

Among the test systems are M14; SF-268; CCRF-CEM; SF-295; RPMI-8226; OVCAR-5; RXF 393; SK-MEL-5; HOP-62; A549; HT-29; SK-MEL-28; SW-620; U-251; UACC-62; NCI-H23; 786-0; A498.
Common to all, as to assay: growth of human tumour cells (NCI), 48 h

Structures are written as SMILES.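 Briefly, cells in 96-well plates were exposed to five compound concentrations for 48 h, and endpoints were estimated by linear interpolation. At the GI50, growth is halved.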 The source made the active and inactive calls. No stated cut-off is given here; in the data, active = GI50 up to about 1.1 µM and inactive = higher.

`CP(C)C.[Ag][I]`: the GI50 in the assay on M14 is > 100 µM (inactive); in the assay with SF-268, > 100 µM (inactive); in the assay on CCRF-CEM, 22 µM (inactive); in the assay on SF-295, > 100 µM (inactive); with RPMI-8226 it was > 100 µM (inactive); in the assay with OVCAR-5 it was > 100 µM (inactive). In addition, the GI50 in the assay with RXF 393 is > 100 µM (inactive); in the assay on SK-MEL-5, 15.4 µM (inactive); in the assay on HOP-62, > 100 µM (inactive); with A549 it was > 100 µM (inactive); in the assay on HT-29 it was > 100 µM (inactive); with SK-MEL-28 it was 61.9 µM (inactive). The GI50 with SW-620 was > 100 µM (inactive); in the assay with U-251 it was > 100 µM (inactive); in the assay with UACC-62, > 100 µM (inactive); in the assay with NCI-H23, 85.3 µM (inactive); in the assay on 786-0 it was > 100 µM (inactive).
As for `Cc1ccc(C(O)(c2ccc(C)cc2)c2ccccn2)cc1`, the GI50 with M14 is > 100 µM (inactive); in the assay on SF-268 it was > 100 µM (inactive); with CCRF-CEM it was 51.5 µM (inactive); in the assay with SF-295 it was > 100 µM (inactive); in the assay on A498, > 100 µM (inactive); in the assay with RPMI-8226, > 100 µM (inactive). The GI50 in the assay with OVCAR-5 is > 100 µM (inactive); with SK-MEL-5, > 100 µM (inactive); with HOP-62, > 100 µM (inactive); in the assay with A549, 64.6 µM (inactive); in the assay on HT-29 it was 80.7 µM (inactive); in the assay with SK-MEL-28 it was > 100 µM (inactive). For the same compound, the GI50 with SW-620 was > 100 µM (inactive); with U-251, > 100 µM (inactive); in the assay with UACC-62, > 100 µM (inactive); in the assay on NCI-H23, 80.2 µM (inactive); in the assay on 786-0, > 100 µM (inactive).
As for `CCCCNC1=C(C(=O)OCC)C(=O)CO1`, the GI50 in the assay with M14, with SF-268, with CCRF-CEM, in the assay with SF-295, in the assay on RPMI-8226 and in the assay on OVCAR-5 was > 100 µM (inactive) each time. In addition, the GI50 with RXF 393, with SK-MEL-5, in the assay on HOP-62, in the assay with A549, in the assay with HT-29 and with SK-MEL-28 was > 100 µM (inactive) each time. Further, the GI50 with SW-620, in the assay with U-251, in the assay with UACC-62, in the assay on NCI-H23 and in the assay on 786-0 was > 100 µM (inactive) throughout.
For the compound `CCOc1cc2cnc3c4cc(OC)c(OC)cc4ccc3c2cc1OC`, the GI50 was > 100 µM (inactive) with M14; 37.3 µM (inactive) with SF-268; 23.8 µM (inactive) with CCRF-CEM; 26.4 µM (inactive) in the assay on SF-295; > 100 µM (inactive) with RPMI-8226; > 100 µM (inactive) in the assay on OVCAR-5. For the same compound, the GI50 in the assay with RXF 393, with SK-MEL-5, in the assay on HOP-62, with A549, in the assay on HT-29 and in the assay with SK-MEL-28 was > 100 µM (inactive) each time. Also, the GI50 in the assay on SW-620 was > 100 µM (inactive); in the assay on U-251 it was 6.4 µM (inactive); in the assay with UACC-62, > 100 µM (inactive); in the assay with NCI-H23, > 100 µM (inactive); with 786-0 it was > 100 µM (inactive).
Regarding `COc1cccc(/C=C(/C(=O)O)c2cc(OC)c(OC)c(OC)c2)c1`, the GI50 in the assay with M14 was > 100 µM (inactive); in the assay on SF-268, > 100 µM (inactive); in the assay on CCRF-CEM, 46.5 µM (inactive); in the assay with SF-295, > 100 µM (inactive); in the assay with A498, > 100 µM (inactive); in the assay on RPMI-8226 it was > 100 µM (inactive). In addition, the GI50 in the assay on RXF 393 is 45.2 µM (inactive); with SK-MEL-5 it was > 100 µM (inactive); in the assay with HOP-62, > 100 µM (inactive); with A549, > 100 µM (inactive); in the assay on HT-29 it was > 100 µM (inactive); with SK-MEL-28, > 100 µM (inactive). In addition, the GI50 in the assay on SW-620, in the assay on U-251, in the assay on UACC-62 and in the assay with 786-0 was > 100 µM (inactive) throughout.
Consider `CN(C)C(=S)/N=c1\ssc(=S)n1-c1ccccc1`, for which the GI50 was 15 µM (inactive) in the assay with M14; 16.9 µM (inactive) in the assay with SF-268; 0.36 µM (active) in the assay on CCRF-CEM; 24.2 µM (inactive) with SF-295; 21.3 µM (inactive) with A498; 16 µM (inactive) in the assay on OVCAR-5. Also, the GI50 in the assay with RXF 393 is 18.7 µM (inactive); in the assay on SK-MEL-5, 32.7 µM (inactive); with HOP-62, 34.2 µM (inactive); in the assay with A549, 25.3 µM (inactive); in the assay with HT-29, 18.9 µM (inactive); in the assay with SK-MEL-28 it was 16.7 µM (inactive). Besides, the GI50 in the assay on SW-620 was 10.7 µM (inactive); with U-251, 15.8 µM (inactive); in the assay on UACC-62 it was 16 µM (inactive); in the assay on NCI-H23, 24.2 µM (inactive); in the assay with 786-0 it was 16.8 µM (inactive).
Consider `CC(=O)OC1C(CCl)OC(N=[N+]=[N-])C(OC(C)=O)C1OC(C)=O` (stereo not given), for which the GI50 with M14, with SF-268, with CCRF-CEM, in the assay with SF-295, in the assay on A498 and in the assay on RPMI-8226 was > 100 µM (inactive) in each case. The GI50 with RXF 393, with SK-MEL-5, in the assay on HOP-62, with A549, with HT-29 and with SK-MEL-28 was > 100 µM (inactive) throughout. In addition, the GI50 in the assay with SW-620, in the assay with U-251, in the assay on UACC-62, with NCI-H23 and in the assay on 786-0 was > 100 µM (inactive) in each case.
Turning to `CC(=O)OC1CC2C(C)(C)C(=O)C=C[C@]2(C)C2CCC3(C)C(c4ccoc4)C(=O)C4OC43[C@]12C` (stereo not given in full), the GI50 was 17.3 µM (inactive) in the assay with M14; 21.7 µM (inactive) with SF-268; 20.8 µM (inactive) in the assay on CCRF-CEM; 16.9 µM (inactive) in the assay with SF-295; 17.6 µM (inactive) with A498; 2.77 µM (inactive) with RPMI-8226. The GI50 is 29.4 µM (inactive) with OVCAR-5; 15.7 µM (inactive) in the assay on SK-MEL-5; 27.8 µM (inactive) in the assay with HOP-62; 16.7 µM (inactive) in the assay with A549; 16.3 µM (inactive) in the assay on HT-29; 16.9 µM (inactive) with SK-MEL-28. In addition, the GI50 with SW-620 was 19.5 µM (inactive); with U-251 it was 18.8 µM (inactive); with UACC-62, 14.2 µM (inactive); in the assay with NCI-H23, 15.3 µM (inactive); with 786-0 it was 25.9 µM (inactive).
As for `C=C[C@@]12CCCCC1C/C(=C(/O)OC)C(=O)C2` (stereo not given in full), the GI50 in the assay with M14, in the assay on SF-268, in the assay with CCRF-CEM, with SF-295, in the assay with RPMI-8226 and in the assay with OVCAR-5 was > 100 µM (inactive) each time. Moreover, the GI50 with RXF 393, in the assay with SK-MEL-5, with HOP-62, in the assay on A549, in the assay with HT-29 and in the assay on SK-MEL-28 was > 100 µM (inactive) in each case. For the same compound, the GI50 with SW-620, in the assay on U-251, with UACC-62, in the assay with NCI-H23 and in the assay with 786-0 was > 100 µM (inactive) in each case.
Take `COc1ccc(C(=O)C(C(=O)C(=O)Nc2ccc(Cl)c(Cl)c2)c2ccc(OC)cc2)cc1` (stereo not given): the GI50 in the assay with M14, in the assay on SF-268, in the assay on SF-295, in the assay with A498, in the assay with RPMI-8226 and in the assay on OVCAR-5 was > 100 µM (inactive) throughout. Moreover, the GI50 in the assay on RXF 393, in the assay with SK-MEL-5, in the assay on HOP-62, in the assay with A549, with HT-29 and in the assay on SK-MEL-28 was > 100 µM (inactive) in each case. Further, the GI50 in the assay with SW-620, in the assay with U-251, in the assay with UACC-62, with NCI-H23 and in the assay with 786-0 was > 100 µM (inactive) throughout.
Regarding `O=C1CCCC2=C1CC1=C(CCCC1=O)N2c1cccc([N+](=O)[O-])c1`, the GI50 in the assay on M14, in the assay with SF-268, in the assay with CCRF-CEM, in the assay on A498, in the assay with RPMI-8226 and in the assay on OVCAR-5 was > 100 µM (inactive) each time. For the same compound, the GI50 is 67.9 µM (inactive) with RXF 393; > 100 µM (inactive) in the assay with SK-MEL-5; > 100 µM (inactive) in the assay with A549; > 100 µM (inactive) with HT-29; > 100 µM (inactive) with SK-MEL-28; > 100 µM (inactive) in the assay on SW-620. Also, the GI50 in the assay on U-251, in the assay on UACC-62, in the assay with NCI-H23 and in the assay on 786-0 was > 100 µM (inactive) each time.
For `Cc1cc(NS(=O)(=O)c2ccc(NC(=O)c3ccc(Cl)c4c(Nc5ccc(S(=O)(=O)N=C(N)N)cc5)c5ccccc5nc34)cc2)no1`, the GI50 with M14 is > 100 µM (inactive); in the assay with SF-268 it was 42.3 µM (inactive); with CCRF-CEM, 28.3 µM (inactive); in the assay on SF-295, > 100 µM (inactive); with A498 it was > 100 µM (inactive); with RPMI-8226, 59.7 µM (inactive). The GI50 was > 100 µM (inactive) in the assay with OVCAR-5; 19.2 µM (inactive) in the assay with RXF 393; 21.6 µM (inactive) with HOP-62; 45.8 µM (inactive) in the assay with HT-29; 87.5 µM (inactive) with SK-MEL-28; 18 µM (inactive) in the assay with U-251. Also, the GI50 is 44.3 µM (inactive) in the assay with UACC-62, > 100 µM (inactive) in the assay with NCI-H23 and 45.6 µM (inactive) with 786-0.
